Patent US20220289715A1, “PESTICIDALLY ACTIVE PYRAZINE-AMIDE COMPOUNDS” (priority 2019, published 2022)

What was measured:
Type in all cases: in vivo
[1] = system: Chilo suppressalis (Striped Rice Stemborer); test: Example B3: Chilo suppressalis, artificial diet; settings: 144 h, application rate of 200 ppm, L2 larvae, 6 days after infestation, read-out: control in at least one of the three categories (mortality, anti-feedant effect, or growth inhibition)
Description: Example B3: Chilo suppressalis (Striped Rice Stemborer)
24-well microtiter plates with artificial diet were treated with aqueous test solutions prepared from 10,000 ppm DMSO stock solutions by pipetting. After drying, the plates were infested with L2 larvae (6-8 per well). The samples were assessed for mortality, anti-feeding effect, and growth inhibition in comparison to untreated samples 6 days after infestation. Control of Chilo suppressalis by a test sample is given when at least one of the categories mortality, anti-feedant effect, and growth inhibition is higher than the untreated sample.

[2] = system: Plutella xylostella (Diamond Back Moth); test: Example B4: Plutella xylostella, artificial diet, 24-well; settings: 192 h, application rate of 200 ppm, eggs, 8 days after infestation, read-out: control in at least one of the two categories (mortality or growth inhibition)
Description: Example B4: Plutella xylostella (Diamond Back Moth)
24-well microtiter plates with artificial diet were treated with aqueous test solutions prepared from 10,000 ppm DMSO stock solutions by pipetting. After drying, Plutella eggs were pipetted through a plastic stencil onto a gel blotting paper and the plate was closed with it. The samples were assessed for mortality and growth inhibition in comparison to untreated samples 8 days after infestation.
(§1) The following compounds gave an effect of at least 80% control in at least one of the two categories (mortality or growth inhibition) at an application rate of 200 ppm: […]

[3] = system: Plutella xylostella (Diamondback Moth); test: Example B9: Plutella xylostella, artificial diet, 96-well; settings: 216 h, application rate of 500 ppm, eggs/L1 larvae, 9 days after infestation
Description: Example B9: Plutella xylostella (Diamondback Moth)
96-well microtiter plates containing artificial diet were treated with aqueous test solutions, prepared from 10,000 ppm DMSO stock solutions, by a liquid handling robot. After drying, eggs (˜30 per well) were infested onto a netted lid which was suspended above the diet. The eggs hatch and L1 larvae move down to the diet. The samples were assessed for mortality 9 days after infestation.
The following compounds gave an effect of at least 80% mortality at an application rate of 500 ppm: […]

[4] = system: Diabrotica balteata (Corn Root Worm); test: Example B1: Diabrotica balteata, spray on maize sprouts; settings: 96 h, application rate of 200 ppm, L2 larvae, 4 days after infestation, read-out: control in at least one of the two categories (mortality or growth inhibition)
Description: Example B1: Diabrotica balteata (Corn Root Worm)
Maize sprouts placed onto an agar layer in 24-well microtiter plates were treated with aqueous test solutions prepared from 10,000 ppm DMSO stock solutions by spraying. After drying, the plates were infested with L2 larvae (6 to 10 per well). The samples were assessed for mortality and growth inhibition in comparison to untreated samples 4 days after infestation.
as §1

[5] = system: Spodoptera littoralis (Egyptian Cotton Leaf Worm); test: Example B6: Spodoptera littoralis, spray on cotton leaf discs; settings: foliar, 72 h, application rate of 200 ppm, L1 larvae, 3 days after infestation, read-out: control in at least one of the three categories (mortality, anti-feedant effect, or growth inhibition)
Description: Example B6: Spodoptera littoralis (Egyptian Cotton Leaf Worm)
Cotton leaf discs were placed onto agar in 24-well microtiter plates and sprayed with aqueous test solutions prepared from 10,000 ppm DMSO stock solutions. After drying the leaf discs were infested with five L1 larvae. The samples were assessed for mortality, anti-feeding effect, and growth inhibition in comparison to untreated samples 3 days after infestation. Control of Spodoptera littoralis by a test sample is given when at least one of the categories mortality, anti-feedant effect, and growth inhibition is higher than the untreated sample.

[6] = system: Euschistus heros (Neotropical Brown Stink Bug); test: Example B2: Euschistus heros, spray on soybean leaves; settings: 120 h, application rate of 200 ppm, N2 nymphs, 5 days after infestation, read-out: control in at least one of the two categories (mortality or growth inhibition)
Description: Example B2: Euschistus heros (Neotropical Brown Stink Bug)
Soybean leaves on agar in 24-well microtiter plates were sprayed with aqueous test solutions prepared from 10,000 ppm DMSO stock solutions. After drying the leaves were infested with N2 nymphs. The samples were assessed for mortality and growth inhibition in comparison to untreated samples 5 days after infestation.
as §1

[7] = system: Myzus persicae (Green Peach Aphid); test: Example B10: Myzus persicae, sucrose solution, 96-well; settings: 120 h, application rate of 50 ppm, 5 days after infestation
Excerpt: Example B10: Myzus persicae (Green Peach Aphid)
Test compounds prepared from 10,000 ppm DMSO stock solutions were applied by a liquid handling robot into 96-well microtiter plates and mixed with a sucrose solution. Parafilm was stretched over the 96-well microtiter plate and a plastic stencil with 96 holes was placed onto the plate. Aphids were sieved into the wells directly onto the Parafilm. The infested plates were closed with a gel blotting card and a second plastic stencil and then turned upside down. The samples were assessed for mortality 5 days after infestation.

CC(NC(=O)c1cc(C(F)(F)F)cc(S(=O)(=O)C(F)(F)F)c1)c1nccnc1-n1nccn1 (centres unmarked) [Compound P13, N-[1-[3-(triazol-2-yl)pyrazin-2-yl]ethyl]-3-(trifluoromethyl)-5-(trifluoromethylsulfonyl)benzamide]
≥ 80%: percent control (mortality, anti-feedant effect or growth inhibition) at 200 ppm [1] | percent control (mortality or growth inhibition) at 200 ppm [2] | mortality at 500 ppm [3] | percent control (mortality or growth inhibition) at 200 ppm [4] | percent control (mortality, anti-feedant effect or growth inhibition) at 200 ppm [5]

CC(NC(=O)c1cc(Cl)cc(Cl)c1)c1nccnc1-n1nccn1 (centres unmarked) [Compound P20, 3,5-dichloro-N-[1-[3-(triazol-2-yl)pyrazin-2-yl]ethyl]benzamide]
≥ 80%: percent control (mortality, anti-feedant effect or growth inhibition) at 200 ppm [1] | percent control (mortality or growth inhibition) at 200 ppm [2] | percent control (mortality or growth inhibition) at 200 ppm [6] | percent control (mortality or growth inhibition) at 200 ppm [4] | percent control (mortality, anti-feedant effect or growth inhibition) at 200 ppm [5]

COc1cc(OC)cc(C(=O)NC(C)c2nccnc2-n2nccn2)c1 (centres unmarked) [Compound P23, 3,5-dimethoxy-N-[1-[3-(triazol-2-yl)pyrazin-2-yl]ethyl]benzamide]
≥ 80%: mortality at 50 ppm [7] | percent control (mortality or growth inhibition) at 200 ppm [6]

CC(NC(=O)c1cc(Cl)cc(OC(F)(F)F)c1)c1nccnc1-n1nccn1 (centres unmarked) [Compound P33, 3-chloro-N-[1-[3-(triazol-2-yl)pyrazin-2-yl]ethyl]-5-(trifluoromethoxy)benzamide]
≥ 80%: percent control (mortality, anti-feedant effect or growth inhibition) at 200 ppm [1] | percent control (mortality or growth inhibition) at 200 ppm [2] | mortality at 500 ppm [3] | percent control (mortality or growth inhibition) at 200 ppm [4] | percent control (mortality, anti-feedant effect or growth inhibition) at 200 ppm [5]

CC(NC(=O)c1cc(C(F)(F)F)nc(C2(C#N)CC2)c1)c1nccnc1-n1nccn1 (centres unmarked) [Compound P14, 2-(1-cyanocyclopropyl)-N-[1-[3-(triazol-2-yl)pyrazin-2-yl]ethyl]-6-(trifluoromethyl)pyridine-4-carboxamide]
≥ 80%: percent control (mortality, anti-feedant effect or growth inhibition) at 200 ppm [1] | percent control (mortality or growth inhibition) at 200 ppm [2] | percent control (mortality or growth inhibition) at 200 ppm [6] | percent control (mortality or growth inhibition) at 200 ppm [4] | percent control (mortality, anti-feedant effect or growth inhibition) at 200 ppm [5]

CC(NC(=O)c1cc(C(F)(F)F)cc(C(F)(F)C2CC2)c1)c1nccnc1-n1nccn1 (centres unmarked) [Compound P17, 3-[cyclopropyl(difluoro)methyl]-N-[1-[3-(triazol-2-yl)pyrazin-2-yl]ethyl]-5-(trifluoromethyl)benzamide]
≥ 80%: percent control (mortality, anti-feedant effect or growth inhibition) at 200 ppm [1] | percent control (mortality or growth inhibition) at 200 ppm [2] | mortality at 500 ppm [3] | percent control (mortality or growth inhibition) at 200 ppm [4] | percent control (mortality, anti-feedant effect or growth inhibition) at 200 ppm [5]

CC(NC(=O)c1cc(Br)cc(OC(F)(F)F)c1)c1nccnc1-n1nccn1 (centres unmarked) [Compound P36, 3-bromo-N-[1-[3-(triazol-2-yl)pyrazin-2-yl]ethyl]-5-(trifluoromethoxy)benzamide]
≥ 80%: percent control (mortality, anti-feedant effect or growth inhibition) at 200 ppm [1] | percent control (mortality or growth inhibition) at 200 ppm [2] | mortality at 500 ppm [3] | percent control (mortality or growth inhibition) at 200 ppm [4] | percent control (mortality, anti-feedant effect or growth inhibition) at 200 ppm [5]

CC(NC(=O)c1cc(F)cc(C(F)(F)F)c1)c1nccnc1-n1nccn1 (centres unmarked) [Compound P26, 3-fluoro-N-[1-[3-(triazol-2-yl)pyrazin-2-yl]ethyl]-5-(trifluoromethyl)benzamide]
≥ 80%: mortality at 50 ppm [7] | percent control (mortality, anti-feedant effect or growth inhibition) at 200 ppm [1] | percent control (mortality or growth inhibition) at 200 ppm [2] | mortality at 500 ppm [3] | percent control (mortality or growth inhibition) at 200 ppm [4] | percent control (mortality, anti-feedant effect or growth inhibition) at 200 ppm [5]

CC(NC(=O)c1cc(Cl)nc(C(F)(F)F)c1)c1nccnc1-n1nccn1 (centres unmarked) [Compound P22, 2-chloro-N-[1-[3-(triazol-2-yl)pyrazin-2-yl]ethyl]-6-(trifluoromethyl)pyridine-4-carboxamide]
≥ 80%: mortality at 50 ppm [7] | percent control (mortality, anti-feedant effect or growth inhibition) at 200 ppm [1] | percent control (mortality or growth inhibition) at 200 ppm [2] | mortality at 500 ppm [3] | percent control (mortality or growth inhibition) at 200 ppm [4] | percent control (mortality, anti-feedant effect or growth inhibition) at 200 ppm [5]

CC(NC(=O)c1cc(C2CC2)nc(C(F)(F)F)c1)c1nccnc1-n1nccn1 (centres unmarked) [Compound P11, 2-cyclopropyl-N-[1-[3-(triazol-2-yl)pyrazin-2-yl]ethyl]-6-(trifluoromethyl)pyridine-4-carboxamide]
≥ 80%: percent control (mortality, anti-feedant effect or growth inhibition) at 200 ppm [1] | percent control (mortality or growth inhibition) at 200 ppm [2] | mortality at 500 ppm [3] | percent control (mortality or growth inhibition) at 200 ppm [4] | percent control (mortality, anti-feedant effect or growth inhibition) at 200 ppm [5]

CC(NC(=O)c1cc(Br)cc(Br)c1)c1nccnc1-n1nccn1 (centres unmarked) [Compound P38, 3,5-dibromo-N-[1-[3-(triazol-2-yl)pyrazin-2-yl]ethyl]benzamide]
≥ 80%: percent control (mortality, anti-feedant effect or growth inhibition) at 200 ppm [1] | percent control (mortality or growth inhibition) at 200 ppm [2] | mortality at 500 ppm [3] | percent control (mortality or growth inhibition) at 200 ppm [4] | percent control (mortality, anti-feedant effect or growth inhibition) at 200 ppm [5]

CC(NC(=O)c1cc(C(F)(F)F)cc(C(F)(F)F)c1)c1nccnc1-n1cncn1 (centres unmarked) [Compound P46, N-[1-[3-(1,2,4-triazol-1-yl)pyrazin-2-yl]ethyl]-3,5-bis(trifluoromethyl)benzamide]
≥ 80%: percent control (mortality, anti-feedant effect or growth inhibition) at 200 ppm [1] | percent control (mortality or growth inhibition) at 200 ppm [2] | percent control (mortality or growth inhibition) at 200 ppm [6] | percent control (mortality, anti-feedant effect or growth inhibition) at 200 ppm [5]

CC(NC(=O)c1cc(C2CC2(F)F)cc(C(F)(F)F)c1)c1nccnc1-n1nccn1 (centres unmarked) [Compound P7, 3-(2,2-difluorocyclopropyl)-N-[1-[3-(triazol-2-yl)pyrazin-2-yl]ethyl]-5-(trifluoromethyl)benzamide]
≥ 80%: percent control (mortality, anti-feedant effect or growth inhibition) at 200 ppm [1] | percent control (mortality or growth inhibition) at 200 ppm [2] | mortality at 500 ppm [3] | percent control (mortality or growth inhibition) at 200 ppm [4] | percent control (mortality, anti-feedant effect or growth inhibition) at 200 ppm [5]

CC(NC(=O)c1cc(C(F)(F)F)cc(C(F)(F)F)c1)c1nccnc1-n1nc2ccccc2n1 (centres unmarked) [Compound P52, N-[1-[3-(benzotriazol-2-yl)pyrazin-2-yl]ethyl]-3,5-bis(trifluoromethyl)benzamide]
≥ 80%: percent control (mortality, anti-feedant effect or growth inhibition) at 200 ppm [1] | percent control (mortality or growth inhibition) at 200 ppm [2] | mortality at 500 ppm [3] | percent control (mortality or growth inhibition) at 200 ppm [4] | percent control (mortality, anti-feedant effect or growth inhibition) at 200 ppm [5]
